According to patent US20140348819A1, “Methods of Treating Cancer” (Dana-Farber Cancer Institute, Inc., priority 2011, published 2014):

Test system: six V600E BRAF melanoma cell lines
Assay: Screening of recombinant RTK ligands for ability to confer resistance to BRAFi (PLX4720) or MEKi (PD184352) (Table 4)
Type: cell-based, human
Parameters: ability of recombinant RTK ligand to confer resistance / ability of recombinant RTK ligand to confer resistance (screening value): scale not given here
Experimental: HGF is the only one that can substantially confer drug resistance to the cell lines.
The complexity of the tumor microenvironment is much greater than an in vitro co-culture system. Therefore, the inventors explored whether the activation of other RTKs could result in a similar resistance as that observed with the activation of MET. To this end, six V600E BRAF melanoma cell lines were tested for their resistance to either BRAFi (PLX4720) or MEKi (PD184352) after the addition of 22 RTK ligands that have the potential of activating almost all known RTKs. […] The activation of a selected subset of these RTKs was confirmed by western blotting and by high throughput tyrosine kinase phosphorylation profiling.

[1] = A2058, PD184352 - 1 uM, ligand 0.4 ng/ml
[2] = A2058, PD184352 - 1 uM, ligand 1.6 ng/ml
[3] = A2058, PD184352 - 1 uM, ligand 6.25 ng/ml
[4] = A2058, PD184352 - 1 uM, ligand 25 ng/ml
[5] = A2058, PD184352 - 1 uM, ligand 100 ng/ml
[6] = A2058, PLX4720 - 2 uM, ligand 0.4 ng/ml
[7] = A2058, PLX4720 - 2 uM, ligand 1.6 ng/ml
[8] = A2058, PLX4720 - 2 uM, ligand 6.25 ng/ml
[9] = A2058, PLX4720 - 2 uM, ligand 25 ng/ml
[10] = A2058, PLX4720 - 2 uM, ligand 100 ng/ml
[11] = C32, PD184352 - 1 uM, ligand 0.4 ng/ml
[12] = C32, PD184352 - 1 uM, ligand 1.6 ng/ml
[13] = C32, PD184352 - 1 uM, ligand 6.25 ng/ml
[14] = C32, PD184352 - 1 uM, ligand 25 ng/ml
[15] = C32, PD184352 - 1 uM, ligand 100 ng/ml
[16] = C32, PLX4720 - 2 uM, ligand 0.4 ng/ml
[17] = C32, PLX4720 - 2 uM, ligand 1.6 ng/ml
[18] = C32, PLX4720 - 2 uM, ligand 6.25 ng/ml
[19] = C32, PLX4720 - 2 uM, ligand 25 ng/ml
[20] = C32, PLX4720 - 2 uM, ligand 100 ng/ml
[21] = Colo 829, PD184352 - 1 uM, ligand 0.4 ng/ml
[22] = Colo 829, PD184352 - 1 uM, ligand 1.6 ng/ml
[23] = Colo 829, PD184352 - 1 uM, ligand 6.25 ng/ml
[24] = Colo 829, PD184352 - 1 uM, ligand 25 ng/ml
[25] = Colo 829, PD184352 - 1 uM, ligand 100 ng/ml
[26] = Colo 829, PLX4720 - 2 uM, ligand 0.4 ng/ml
[27] = Colo 829, PLX4720 - 2 uM, ligand 1.6 ng/ml
[28] = Colo 829, PLX4720 - 2 uM, ligand 6.25 ng/ml
[29] = Colo 829, PLX4720 - 2 uM, ligand 25 ng/ml
[30] = Colo 829, PLX4720 - 2 uM, ligand 100 ng/ml
[31] = G-361, PD184352 - 1 uM, ligand 0.4 ng/ml
[32] = G-361, PD184352 - 1 uM, ligand 1.6 ng/ml
[33] = G-361, PD184352 - 1 uM, ligand 6.25 ng/ml
[34] = G-361, PD184352 - 1 uM, ligand 25 ng/ml
[35] = G-361, PD184352 - 1 uM, ligand 100 ng/ml
[36] = G-361, PLX4720 - 2 uM, ligand 0.4 ng/ml
[37] = G-361, PLX4720 - 2 uM, ligand 1.6 ng/ml
[38] = G-361, PLX4720 - 2 uM, ligand 6.25 ng/ml
[39] = G-361, PLX4720 - 2 uM, ligand 25 ng/ml
[40] = G-361, PLX4720 - 2 uM, ligand 100 ng/ml
[41] = SK-MEL-5, PD184352 - 1 uM, ligand 0.4 ng/ml
[42] = SK-MEL-5, PD184352 - 1 uM, ligand 1.6 ng/ml
[43] = SK-MEL-5, PD184352 - 1 uM, ligand 6.25 ng/ml
[44] = SK-MEL-5, PD184352 - 1 uM, ligand 25 ng/ml
[45] = SK-MEL-5, PD184352 - 1 uM, ligand 100 ng/ml
[46] = SK-MEL-5, PLX4720 - 2 uM, ligand 0.4 ng/ml
[47] = SK-MEL-5, PLX4720 - 2 uM, ligand 1.6 ng/ml
[48] = SK-MEL-5, PLX4720 - 2 uM, ligand 6.25 ng/ml
[49] = SK-MEL-5, PLX4720 - 2 uM, ligand 25 ng/ml
[50] = SK-MEL-5, PLX4720 - 2 uM, ligand 100 ng/ml
[51] = SK-MEL-28, PD184352 - 1 uM, ligand 0.4 ng/ml
[52] = SK-MEL-28, PD184352 - 1 uM, ligand 1.6 ng/ml
[53] = SK-MEL-28, PD184352 - 1 uM, ligand 6.25 ng/ml
[54] = SK-MEL-28, PD184352 - 1 uM, ligand 25 ng/ml
[55] = SK-MEL-28, PD184352 - 1 uM, ligand 100 ng/ml
[56] = SK-MEL-28, PLX4720 - 2 uM, ligand 0.4 ng/ml
[57] = SK-MEL-28, PLX4720 - 2 uM, ligand 1.6 ng/ml
[58] = SK-MEL-28, PLX4720 - 2 uM, ligand 6.25 ng/ml
[59] = SK-MEL-28, PLX4720 - 2 uM, ligand 25 ng/ml
[60] = SK-MEL-28, PLX4720 - 2 uM, ligand 100 ng/ml

With FGF1 the “ability of recombinant RTK ligand to confer resistance” value (“ability of recombinant RTK ligand” for short) [1] was 1.04, the “ability of recombinant RTK ligand” value [2] was 1.05 and the “ability of recombinant RTK ligand” value [3] was 1.04. For the same substance, the “ability of recombinant RTK ligand” value [4] was 1.12, the “ability of recombinant RTK ligand” value [5] was 1.19 and the “ability of recombinant RTK ligand” value [6] was 1.02. For the same substance, the “ability of recombinant RTK ligand” value [7] was 1.01, the “ability of recombinant RTK ligand” value [8] was 0.96 and the “ability of recombinant RTK ligand” value [9] was 1.05. For the same substance, the “ability of recombinant RTK ligand” value [10] was 1.11, the “ability of recombinant RTK ligand” value [11] was 1.01 and the “ability of recombinant RTK ligand” value [12] was 1.04. For the same substance, the “ability of recombinant RTK ligand” value [13] was 1.03, the “ability of recombinant RTK ligand” value [14] was 1.02 and the “ability of recombinant RTK ligand” value [15] was 0.97. For the same substance, the “ability of recombinant RTK ligand” value [16] was 1.11, the “ability of recombinant RTK ligand” value [17] was 1.10 and the “ability of recombinant RTK ligand” value [18] was 1.08. For the same substance, the “ability of recombinant RTK ligand” value [19] was 0.93, the “ability of recombinant RTK ligand” value [20] was 1.00 and the “ability of recombinant RTK ligand” value [21] was 1.02. For the same substance, the “ability of recombinant RTK ligand” value [22] was 1.11, the “ability of recombinant RTK ligand” value [23] was 1.00 and the “ability of recombinant RTK ligand” value [24] was 1.08. The “ability of recombinant RTK ligand” value [25] was 1.12, the “ability of recombinant RTK ligand” value [26] was 0.99 and the “ability of recombinant RTK ligand” value [27] was 1.09. For the same substance, the “ability of recombinant RTK ligand” value [28] was 1.02, the “ability of recombinant RTK ligand” value [29] was 1.07 and the “ability of recombinant RTK ligand” value [30] was 1.06. For the same substance, the “ability of recombinant RTK ligand” value [31] was 0.99, the “ability of recombinant RTK ligand” value [32] was 1.09 and the “ability of recombinant RTK ligand” value [33] was 0.99. The “ability of recombinant RTK ligand” value [34] was 1.08, the “ability of recombinant RTK ligand” value [35] was 1.04 and the “ability of recombinant RTK ligand” value [36] was 0.96. The “ability of recombinant RTK ligand” value [37] was 0.95, the “ability of recombinant RTK ligand” value [38] was 0.92 and the “ability of recombinant RTK ligand” value [39] was 0.89. The “ability of recombinant RTK ligand” value [40] was 1.08, the “ability of recombinant RTK ligand” value [41] was 0.98 and the “ability of recombinant RTK ligand” value [42] was 1.07. For the same substance, the “ability of recombinant RTK ligand” value [43] was 1.14, the “ability of recombinant RTK ligand” value [44] was 1.17 and the “ability of recombinant RTK ligand” value [45] was 1.36. For the same substance, the “ability of recombinant RTK ligand” value [46] was 1.01, the “ability of recombinant RTK ligand” value [47] was 1.12 and the “ability of recombinant RTK ligand” value [48] was 1.12. For the same substance, the “ability of recombinant RTK ligand” value [49] was 1.09, the “ability of recombinant RTK ligand” value [50] was 1.28 and the “ability of recombinant RTK ligand” value [51] was 1.05. The “ability of recombinant RTK ligand” value [52] was 0.87, the “ability of recombinant RTK ligand” value [53] was 0.90 and the “ability of recombinant RTK ligand” value [54] was 0.92. The “ability of recombinant RTK ligand” value [55] was 1.06, the “ability of recombinant RTK ligand” value [56] was 1.00 and the “ability of recombinant RTK ligand” value [57] was 1.02. For the same substance, the “ability of recombinant RTK ligand” value [58] was 1.10, the “ability of recombinant RTK ligand” value [59] was 0.98 and the “ability of recombinant RTK ligand” value [60] was 1.08.

In the case of IGF-I, the “ability of recombinant RTK ligand” value [1] is reported as 1.10, the “ability of recombinant RTK ligand” value [2] is reported as 1.02 and the “ability of recombinant RTK ligand” value [3] is reported as 1.03. For the same substance, the “ability of recombinant RTK ligand” value [4] was 1.08, the “ability of recombinant RTK ligand” value [5] was 1.02 and the “ability of recombinant RTK ligand” value [6] was 1.05. For the same substance, the “ability of recombinant RTK ligand” value [7] was 0.95, the “ability of recombinant RTK ligand” value [8] was 0.97 and the “ability of recombinant RTK ligand” value [9] was 1.04. The “ability of recombinant RTK ligand” value [10] was 0.99, the “ability of recombinant RTK ligand” value [11] was 1.05 and the “ability of recombinant RTK ligand” value [12] was 1.04. For the same substance, the “ability of recombinant RTK ligand” value [13] was 1.21, the “ability of recombinant RTK ligand” value [14] was 1.16 and the “ability of recombinant RTK ligand” value [15] was 1.21. For the same substance, the “ability of recombinant RTK ligand” value [16] was 1.08, the “ability of recombinant RTK ligand” value [17] was 1.12 and the “ability of recombinant RTK ligand” value [18] was 1.17. For the same substance, the “ability of recombinant RTK ligand” value [19] was 1.15, the “ability of recombinant RTK ligand” value [20] was 1.07 and the “ability of recombinant RTK ligand” value [21] was 1.06. For the same substance, the “ability of recombinant RTK ligand” value [22] was 0.97, the “ability of recombinant RTK ligand” value [23] was 1.03 and the “ability of recombinant RTK ligand” value [24] was 1.01. The “ability of recombinant RTK ligand” value [25] was 1.08, the “ability of recombinant RTK ligand” value [26] was 1.00 and the “ability of recombinant RTK ligand” value [27] was 0.99. The “ability of recombinant RTK ligand” value [28] was 1.06, the “ability of recombinant RTK ligand” value [29] was 1.03 and the “ability of recombinant RTK ligand” value [30] was 1.07. The “ability of recombinant RTK ligand” value [31] was 1.06, the “ability of recombinant RTK ligand” value [32] was 1.00 and the “ability of recombinant RTK ligand” value [33] was 1.17. For the same substance, the “ability of recombinant RTK ligand” value [34] was 0.99, the “ability of recombinant RTK ligand” value [35] was 0.95 and the “ability of recombinant RTK ligand” value [36] was 1.03. The “ability of recombinant RTK ligand” value [37] was 1.05, the “ability of recombinant RTK ligand” value [38] was 1.11 and the “ability of recombinant RTK ligand” value [39] was 0.99. For the same substance, the “ability of recombinant RTK ligand” value [40] was 0.87, the “ability of recombinant RTK ligand” value [41] was 1.01 and the “ability of recombinant RTK ligand” value [42] was 1.01. For the same substance, the “ability of recombinant RTK ligand” value [43] was 1.08, the “ability of recombinant RTK ligand” value [44] was 1.06 and the “ability of recombinant RTK ligand” value [45] was 1.29. The “ability of recombinant RTK ligand” value [46] was 1.01, the “ability of recombinant RTK ligand” value [47] was 1.03 and the “ability of recombinant RTK ligand” value [48] was 1.19. The “ability of recombinant RTK ligand” value [49] was 1.25, the “ability of recombinant RTK ligand” value [50] was 1.12 and the “ability of recombinant RTK ligand” value [51] was 1.10. For the same substance, the “ability of recombinant RTK ligand” value [52] was 1.06, the “ability of recombinant RTK ligand” value [53] was 0.98 and the “ability of recombinant RTK ligand” value [54] was 1.06. For the same substance, the “ability of recombinant RTK ligand” value [55] was 1.12, the “ability of recombinant RTK ligand” value [56] was 1.24 and the “ability of recombinant RTK ligand” value [57] was 1.08. The “ability of recombinant RTK ligand” value [58] was 1.09, the “ability of recombinant RTK ligand” value [59] was 1.02 and the “ability of recombinant RTK ligand” value [60] was 1.01.
